Results on one compound are retold here after US20100112012A1, “MODULATION OF IMMUNE RESPONSES” (CLEVELAND CLINIC FOUNDATION, priority 2005, published 2010).

Test [1] concerns contact hypersensitivity (CHS) response. Description: Hapten sensitization and elicitation of contact hypersensitivity. The conditions noted are these: 24 hours after challenge. The class given is in vivo, BALB/c mice. How it is done:
For sensitization to DNFB, mice were painted on days 0 and +1 with 25 ml of 0.25% 2,4-dinitrofluorobenzene (DNFB) (Sigma Chemical, Co.) on the shaved abdomen and 5 ml on each footpad. On day +5 sensitized and, as a negative control, unsensitized mice were challenged with 10 ml of 0.2% DNFB on both sides of each ear. Ear thickness was measured in a blinded manner at 24 h intervals after challenge using an engineer's micrometer (Mitutoyo, Elk Grove Village, Ill.) and expressed in units of 10^−4 inches. The magnitude of ear swelling responses is presented in FIG. 12 as the mean increase of each group of 4 sensitized or non-sensitized mice (i.e. […]) ±SEM over the thickness measured just prior to hapten challenge on day +5 post-sensitization. […] Control mice received injections with an equal volume of PBS.

For test [2], the system named is RCC cell lines. The test can be described thus: Growth inhibition assay, RCC, non-RCC and normal kidney (NKE) cells. The conditions noted are these: 6 RCC and 6 non-RCC cell lines, growth inhibition assay. The class given is cell-based, human.
Description: Growth inhibition assay. […] Cell survival was estimated after an additional 48 hours, using standard Methylene Blue staining followed by extraction and colorimetrical detection of the dye.
For test [3], the system named is androgen receptor, N-Myc, CLOCK/Bmal and Smad. The test can be described thus: Reporter activity of other transcriptional activators. The class given is cell-based. The following applies: data not shown.
The subject of test [4] is NF-κB. Description: Electromobility shift assay and immunofluorescent staining of nuclear NF-κB. The following applies: TNF 10 ng/ml, 10 μM. Format: cell-based, human. From the text:
All washings were done with blocking solution.

Test [5] deals with proinflammatory cytokines in the skin. The test can be described thus: IL-1β, TNFα, CCL21 and IκBα expression in sensitized skin (RT-PCR, ELISA). The conditions noted are these: quinacrine on days −2 plus −1, 0.25% DNFB. The class given is in vivo, BALB/c mice. How it is done: Naive and sensitized mouse skin (˜200 mg) was snap frozen in liquid nitrogen and then ground using a mortar and pestle in liquid nitrogen. Total RNA was extracted using the RNeasy Tissue Kit (Qiagen, Inc., Valencia, Calif.) according to the manufacturer's protocol. For synthesis of cDNA, 2 mg of total RNA from each sample was resuspended in 10 ml of the reaction buffer. cDNA synthesis was performed using M-MLV reverse transcriptase (Promega Corporation, Madison, Wis.) with random primers according to the manufacturer's protocol. The reaction was stopped by denaturing the enzyme at 99° C. for 5 min. and the mixture was diluted with distilled water to a final volume of 50 ml. Aliquots (3 ml) of the synthesized cDNA were added to 47 ml of PCR mixture, containing 1×PCR buffer, MgCl2 (1.5 mM), dNTP (0.2 mM each), primer mix (0.5 mM each) and 2.0 units of Taq DNA polymerase (all from Invitrogen Corp., Carlsbad, Calif.). PCR primers for mouse GAPDH, IκBα, TNF-α, IL-1β and CCL21 were purchased from Integrated DNA Technologies, Inc. (Coralville, Iowa) and contained the following sequences:
Amplification was initiated by 1 min of denaturation at 95° C. for 1 cycle. […] For each set of primers, dilutions of cDNA were amplified for 20-40 cycles to define optimal conditions for linearity and to permit semi-quantitative analysis of signal strength. […]

Test [6] deals with hapten-specific CD8 T cells producing IFN-γ. Description: ELISPOT assay of hapten-specific CD8 T cells producing IFN-γ. The following applies: day +5. Format: in vivo, BALB/c mice. How it is done: ELISPOT assays to enumerate hapten-specific T cells producing IFN-γ were performed as previously described. Briefly, ELISPOT plates (Millipore, Bedford, Mass.) were coated with 100 ml of […] anti-IFN-γ mAb R26A2 and incubated overnight at […]. The plates were blocked with 1% BSA in PBS for 90 min at 37° C. and washed four times with PBS. LNC suspensions from DNFB-sensitized mice were prepared on day +5 after sensitization and CD8 + T cells were enriched by negative selection using Dynabeads (Dynal A. S., Oslo, Norway). The efficiency of CD4+ T cell depletion was >95% as assessed by flow cytometry. Syngeneic spleen cells from naive mice were treated with […] mitomycin C, hapten-labeled by incubation with DNBS ([…]), and used as stimulator cells. Responder LNC were resuspended in serum-free HL-1 medium (BioWhittaker, Walkersville, Md.) and cultured at 3×10^5 cells/well with 5×10^5 stimulator cells/well 24 h at 37° C. in 5% CO2. In all experiments responder CD8+ T cells cultured with unlabeled splenocytes and LNC from naive mice cultured with DNBS-labeled stimulator cells were used as negative controls. […] The resulting spots were counted on an ImmunoSpot Series 1 Analyzer (Cellular Technologies Ltd., Cleveland, Ohio) that was designed to detect spots with predetermined criteria for size, shape and colorimetric density. […]

SMILES strings stand for the structures. Entries after “also recorded” stand apart in the source; their conditions may differ.

In the case of `CCN(CC)CCCC(C)Nc1c2ccc(Cl)cc2nc2ccc(OC)cc12` (centres unmarked) [QC, quinacrine], the CHS/ear swelling response entry in test [1] (quinacrine 80 mg/kg i.p. on days −2 and −1 (just prior to DNFB sensitization)) was “inhibits the priming of antigen-specific T cells (FIG. 13) and the magnitude and duration of the allergic response elicited; also recorded: decreased the CHS/ear swelling response to near the level observed following challenge of non-immune, naïve mice”; in test [1] (quinacrine on days 0 and +1 (during DNFB sensitization)), “increased the magnitude and persistence of the antigen-specific T cell response; also recorded: increased the CHS response to the challenge”. The “IC50 in RCC cells compared with non-RCC cells” value in test [2] is listed as “in the same range as for non-RCC cells”. Further, the “activity of other transcriptional activators (androgen receptor, N-Myc, CLOCK/Bmal and Smad)” value in test [3] is reported as “did not change the activity”. In test [4], the “nuclear accumulation and retention of NF-κB (p65) complexes” value is “greatly prolonged the time of its presence in nuclei”. The “antigen-induced mRNA expression and protein production of proinflammatory cytokines in the skin” value in test [5] was “decreases antigen-induced mRNA expression and protein production of proinflammatory cytokines in the skin”. In addition, in test [6] (quinacrine on days 0 and +1 (during sensitization)), the “increase in priming of antigen-specific effector T cells” value was roughly 3 fold. In addition, the “priming of antigen-specific T cells (IFN-γ producing CD8 T cells)” value in test [6] (quinacrine on days −2 and −1 (just prior to sensitization)) is “inhibits the priming of antigen-specific T cells; also recorded: decreased the priming of antigen-specific T cells”.
